Data on seven compounds can be found in PubChem BioAssay (NCI).

The structures appear in SMILES notation.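 Protocol summary: plate cells (96-well), add compound at 5 concentrations, incubate 48 h, interpolate endpoints linearly. GI50: concentration for 50% inhibition of growth. TGI: total growth inhibition.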

Holding throughout (assay): DTP human tumour cell line panel, 48 h
The test system of experiment [1] is HS 578T breast.
In experiment [2] the test system is TK-10 renal.
The subject of experiment [3] is MOLT-4 leukemia.
In experiment [4] the test system is ACHN renal.
Experiment [5] deals with MCF7 breast.
The subject of experiment [6] is OVCAR-4 ovarian.
Experiment [7] concerns A549 NSCLC.
In experiment [8] the test system is HCT-116 colon.
The test system of experiment [9] is NCI-H23 lung.
Experiment [10] has as its system A498 renal.

On to `CN1CCN(Cc2ccc(NC(=O)c3[nH]ncc3Nc3ncnc4c3CCC4)cc2)CC1`, for which the GI50 is 0.705 µM in experiment [1]; 4.02 µM in experiment [2]; 0.447 µM in experiment [3]; 1.32 µM in [4]; 0.372 µM in experiment [5]; 1.49 µM in experiment [6]. Further, the GI50 in [7] was 2.18 µM; in [8] it was 0.454 µM; in [9], 1.8 µM; in experiment [10], 1.6 µM. Besides, the TGI in [1] is 6.28 µM; in [2] it was 8.85 µM; in experiment [3], 3 µM; in experiment [4] it was 9.09 µM; in experiment [5], 11.1 µM; in experiment [6], 6.67 µM. For the same compound, the TGI in experiment [7] was found to be 12.8 µM; in [8], 11.4 µM; in experiment [9], 6.79 µM; in experiment [10], 4.45 µM.
`CN(C)CC#Cc1cccc(C(=O)c2cnn(-c3ccc(F)cc3)c2N)c1`: the GI50 was more than 19.1 µM in experiment [1]; more than 25 µM in [2]; more than 25 µM in experiment [3]; more than 25 µM in experiment [4]; more than 25 µM in [5]; more than 17.4 µM in experiment [6]. The GI50 was more than 25 µM in experiment [7], more than 25 µM in experiment [8], more than 25 µM in experiment [9] and more than 21.3 µM in experiment [10]. Further, the TGI in experiment [1], in experiment [2], in [3], in experiment [4], in experiment [5] and in [6] was more than 25 µM throughout. For the same compound, the TGI in [7], in [8], in experiment [9] and in experiment [10] was more than 25 µM in each case.
As for `CCOc1cc2ncc(C#N)c(Nc3ccc(F)c(Cl)c3)c2cc1NC(=O)/C=C/CN(C)C`, the GI50 is 0.381 µM in [1]; 0.00445 µM in [2]; 0.716 µM in experiment [3]; 0.0232 µM in experiment [4]; 1.23 µM in [5]; 0.235 µM in experiment [6]. Besides, the GI50 was 0.324 µM in [7], 0.333 µM in [8], 1.32 µM in [9] and 0.145 µM in experiment [10]. Besides, the TGI in experiment [1] was more than 10 µM; in experiment [2], 0.506 µM; in [3] it was more than 4.91 µM; in experiment [4], 1.8 µM; in [5] it was 5.56 µM; in experiment [6] it was 4.1 µM. Further, the TGI was more than 9.66 µM in [7], 1.83 µM in experiment [8], more than 7.42 µM in experiment [9] and 0.799 µM in experiment [10].
As to `CCc1oc2ccccc2c1C(=O)c1cc(Br)c(O)c(Br)c1`, the TGI in experiment [1] is 59 µM; in experiment [2], 64.9 µM; in [3], 59.7 µM; in experiment [4], 31.3 µM; in experiment [5], 51.5 µM; in experiment [6], more than 100 µM. Besides, the TGI was more than 100 µM in [7], 55.7 µM in experiment [8], 54.8 µM in experiment [9] and 45 µM in experiment [10].
As for `COc1ccc(C(=O)c2cc(OC)c(OC)c(OC)c2)cc1O`, the GI50 in experiment [1] was 0.028 µM; in experiment [2], more than 61.5 µM; in [3], 0.0367 µM; in experiment [4], 0.0433 µM; in experiment [5] it was 0.0327 µM; in experiment [6], 0.61 µM. Further, the GI50 was 0.0717 µM in experiment [7], 0.0376 µM in [8], 0.055 µM in experiment [9] and 1.4 µM in [10]. Moreover, the TGI in experiment [1], in experiment [2], in [3], in experiment [4], in experiment [5] and in [6] was more than 100 µM in each case. In addition, the TGI is more than 100 µM in experiment [7], more than 100 µM in experiment [8], more than 100 µM in experiment [9] and 5.7 µM in experiment [10].
As to `Cc1cc(-c2nc3ccc(O)cc3s2)ccc1N`, the GI50 in experiment [1] is 95.5 µM; in experiment [2] it was 76.8 µM; in [3], 27.1 µM; in experiment [4], 53.9 µM; in experiment [5] it was 56.5 µM; in experiment [6] it was 37.2 µM. For the same compound, the GI50 in experiment [7] is 34.5 µM; in experiment [8], 43.9 µM; in experiment [9] it was 12.5 µM; in experiment [10], 41.3 µM. Also, the TGI in [1], in experiment [2], in [3], in experiment [4], in [5] and in experiment [6] was more than 100 µM throughout. Moreover, the TGI in experiment [7] was more than 100 µM; in experiment [8], more than 100 µM; in experiment [9] it was 43.7 µM; in [10] it was more than 100 µM.
Take `CC(=O)Oc1cccc2c1C(=O)C(Br)(Br)CCC2`: the TGI was determined as 39.7 µM in experiment [1]; 30.8 µM in [2]; 13.8 µM in experiment [3]; 12.8 µM in experiment [4]; 5.71 µM in experiment [5]; 3.67 µM in experiment [6]. Also, the concentration for total growth inhibition (TGI) in experiment [7] was 40 µM; in experiment [8], 9.66 µM; in experiment [9] it was 18.7 µM; in [10], 33.4 µM.
